Reference: patent US20250127845A1, “MEDICINAL USES OF OLIGOPEPTIDES IN COMBINATION WITH AN ANTIANDROGEN” (HBC IMMUNOLOGY INC., priority 2022, published 2025)
Values joined by “and” are separate entries in the source; they are usually repeats but may differ in a detail not shown here. Equal values may be shown once.

Assays:
Type in all cases: cell-based, human
LNCaP cells = assay: Clonogenic assay, LNCaP cells; details: for relative percent colony survival / minimal inhibitory concentration (MIC) of bicalutamide: LNCaP; for minimal inhibitory concentration (MIC) of bicalutamide: concentration that begins to inhibit colony formation
Method: (§1) Test Solutions. SPH test solutions were prepared by adding 10 μg, 40 μg, or 160 μg of SPH powder to 1 ml of DMEM containing 0.3% FBS+2% DMSO and sonicating for 10 min just prior to use. Bicalutamide, referred to herein as BIC, (Sigma-Aldrich, Catalog No. B9061) test solutions were prepared by adding 0.43 or 4.3 μg to 1 ml (1 μM and 10 μM) of DMEM containing 0.3% FBS+2% DMSO and sonicating for 10 min just prior to use.
(§2) Cell Culture. The C4 subline (CRL-3313™, RRID: CVCL 4783), which was derived from the human prostate carcinoma cell line LNCaP, was obtained from ATCC (Manassas, VA). C4, which is referred to herein as LNCaP, is an exemplary androgen receptor-positive (AR+ve) cell line that has an epithelial-like morphology and a low metastatic potential. The PC-3 cell line (CRL-1435, RRID: CVCL_0035) was obtained from ATCC (Manassas, VA). PC-3 is an exemplary androgen receptor-negative (AR−ve) cell line that has an epithelial morphology and a high metastatic potential. The Vertebral-Cancer of the Prostate (VCaP) cell line was obtained from Sigma-Aldrich, USA (Catalog No. 06020201). VCaP is a human cell line with an epithelial morphology that was established from a metastatic prostate cancer lesion (Korenchuk et al., In Vivo, 15(2):163˜168, 2001). VCaP cells are androgen receptor-positive and express high levels of prostate-specific antigen. The VCaP-EnzR cell line was also obtained from Sigma-Aldrich, USA (Catalog No. SCC421). […] VCaP-EnzR cells are enzalutamide-resistant and therefore are a suitable model for studying castration-resistant prostate cancer. All cell lines were cultured in RPMI1640 supplemented with 2 mmol/L L-glutamine. 100 U/mL penicillin, […] streptomycin, and 10% heat-inactivated fetal bovine serum. All cells were certified negative for Mycoplasma.
(§3) Clonogenic Assay. Confluent cells were trypsinized and seeded at densities ranging from 3000 to 5000 cells in 10 cm Petri dishes, depending on the cell line, as recommended in the ATCC or Sigma-Aldrich product sheets. […] Treatments were applied daily for 5 days without media changes. The colonies were allowed to develop over 12 days, stained with crystal violet and automatically counted using a TC20 Automated Cell Counter (Bio Rad, Hercules, CA). Each assay was internally controlled using untreated cells (cell media+0.1% DMSO). Relative plating efficiencies were expressed as percentages relative to the plating efficiency of untreated cells and reported as the relative percent colony survival value. All experiments were performed in triplicate.
(§4) All oligopeptides were tested in combination with BIC or ENZ in clonogenic assays. […] SPH absent wells (DMSO 0.04%) were used as the negative control. All experiments were run in triplicate.

PC3 cells = assay: Clonogenic assay, PC3 cells
Method: as §1, §2, §3, §4

[1] = tested on: transferrin receptor 1 (TFRC) mRNA; assay: TFRC gene expression by qRT-PCR in PC3 cells
Method: (§5) Gene Expression. LNCaP, PC-3, VCaP, and VCaP-EnzR cells were seeded in 24-well plates and maintained in RPMI1640 medium supplemented with 2 mmol/L L-glutamine. 100 U/mL penicillin, […] streptomycin, and 10% heat-inactivated fetal bovine serum at 37° C. in a humidified 5% CO2 atmosphere. […] SPH absent wells (DMSO 0.04%) were used as the negative control. All experiments were run in triplicate.
(§6) Samples were studied for expression of the ferritin heavy chain 1 (FTH1) and transferrin receptor 1 ([…]) genes. Total RNA was extracted from cell pellets using the UPzol reagent (Biotechrabbit), followed by DNAse treatment (DNAse TURBO) according to the manufacturers' protocols. Complementary DNA (cDNA) was synthesized with the High Capacity cDNA Reverse Transcription Kit (Applied Biosystems) using random hexamers. Gene expression levels were measured by qRT-PCR.
(§7) 1 μl of cDNA (corresponding to 50 ng of reverse transcribed RNA) was amplified by Qpcr (QuantStudio™ 6 Flex Real-Time PCR System), using TaqMan™ Universal PCR Master Mix (Catalog No. 4304437) and a TaqMan™ assay (Roche Molecular Systems, Inc., Pleasanton, CA). FTH1 and TFRC gene expression was estimated relative to expression of the housekeeping gene, beta-actin (ACTB), following the standard formula: 2-ΔCt. TaqMan probe IDs used include: (i) FTH1, Hs01694011_s1; (ii) TFRC, Hs00951083_m1; and (iii) ACTB, Hs01060665_g1. […]

[2] = tested on: ferritin heavy chain 1 (FTH1) mRNA; assay: FTH1 gene expression by qRT-PCR in LNCaP cells
Method: as §5, §6, §7

[3] = tested on: ferritin heavy chain 1 (FTH1) mRNA; assay: FTH1 gene expression by qRT-PCR in PC3 cells
Method: as §5, §6, §7

[4] = tested on: transferrin receptor 1 (TFRC) mRNA; assay: TFRC gene expression by qRT-PCR in LNCaP cells
Method: as §5, §6, §7

[5] = tested on: ferritin heavy chain 1 (FTH1) mRNA; assay: FTH1 gene expression by qRT-PCR in VCaP-EnzR cells; details: oligopeptide at 10 μM with […] μM ENZ
Method: as §5, §6, §7

VCaP cells = assay: Clonogenic assay, VCaP cells; details: 10 μM oligopeptide with […] enzalutamide, p<0.01
Method: as §1
(§8) Cell Culture. The C4 subline (CRL-3313™, RRID: CVCL 4783), which was derived from the human prostate carcinoma cell line LNCaP, was obtained from ATCC (Manassas, VA). C4, which is referred to herein as LNCaP, is an exemplary androgen receptor-positive (AR+ve) cell line that has an epithelial-like morphology and a low metastatic potential. The PC-3 cell line (CRL-1435, RRID: CVCL_0035) was obtained from ATCC (Manassas, VA). PC-3 is an exemplary androgen receptor-negative (AR−ve) cell line that has an epithelial morphology and a high metastatic potential. The Vertebral-Cancer of the Prostate (VCaP) cell line was obtained from Sigma-Aldrich, USA (Catalog No. 06020201). […]
(§9) Clonogenic Assay. […] The colonies were allowed to develop over 12 days, stained with crystal violet and automatically counted using a TC20 Automated Cell Counter (Bio Rad, Hercules, CA). […]

[6] = tested on: ferritin heavy chain 1 (FTH1) mRNA; assay: FTH1 gene expression by qRT-PCR in VCaP cells; details: oligopeptide at 10 μM with […] ENZ
Method: as §5, §6, §7

VCaP-EnzR cells = assay: Clonogenic assay, VCaP-EnzR cells; details: 10 μM oligopeptide with […] μM enzalutamide, p<0.001
Method: as §1, §8, §9

[7] = tested on: transferrin receptor 1 (TFRC) mRNA; assay: TFRC gene expression by qRT-PCR in VCaP cells; details: oligopeptide at 10 μM with […] ENZ
Method: as §5, §6, §7

[8] = tested on: transferrin receptor 1 (TFRC) mRNA; assay: TFRC gene expression by qRT-PCR in VCaP-EnzR cells; details: oligopeptide at 10 μM with […] μM ENZ
Method: as §5, §6, §7

[9] = 1 μM BIC alone, relative to ACTB
[10] = oligopeptide at 10 μM with 10 μM BIC
[11] = oligopeptide at 10 μM with 10 μM BIC, listed as FT-005-B
[12] = oligopeptide at 10 μM with 0.4 μM BIC
[13] = oligopeptide at 10 μM with 0.4 μM BIC, listed as FT-005-B
[14] = oligopeptide at 10 μM with 10 μM BIC, listed as FT-007-B
[15] = oligopeptide at 10 μM with 0.4 μM BIC, listed as FT-006-B
[16] = oligopeptide at 10 μM with 10 μM BIC, listed as FT-008-B
[17] = oligopeptide at 10 μM with 0.4 μM BIC, listed as FT-008-B

## CC(O)(CS(=O)(=O)c1ccc(F)cc1)C(=O)Nc1ccc(C#N)c(C(F)(F)F)c1 (centres unmarked) [BIC, bicalutamide, reference compound]
LNCaP cells; Homo sapiens, LNCaP clonogenic assay, read-out: IC50 of bicalutamide
  IC50: 0.4 µM
LNCaP cells; 0.5 μM BIC alone
  relative percent colony survival: 85%
LNCaP cells; 1.0 μM BIC alone
  relative percent colony survival: 25%
LNCaP cells
  minimal inhibitory concentration (MIC) of bicalutamide: 1 µM
LNCaP cells; listed as bicalutamide
  minimal inhibitory concentration (MIC) of bicalutamide: 0.5 µM
PC3 cells; Homo sapiens, PC-3, PC3 clonogenic assay, read-out: IC50 of bicalutamide
  IC50: 10 µM
PC3 cells; PC3, 10 μM BIC alone
  relative percent colony survival: 52%
PC3 cells; PC3, concentration that begins to inhibit colony formation
  minimal inhibitory concentration (MIC) of bicalutamide: 10 µM
[1]; 10 μM BIC alone
  TFRC Fold Change (single replicates): 1.0 and 1.1 and 1.2
  TFRC Fold Change, Average: 1.1
[2]; [9]
  FTH1 Fold Change (single replicates): 1.0 (2×) and 1.1
  FTH1 Fold Change, Average: 1.0
[3]; 10 μM BIC alone
  FTH1 Fold Change (single replicates): 0.9 and 1.0 and 1.2
  FTH1 Fold Change, Average: 1.0
[4]; [9]
  TFRC Fold Change (single replicates): 1.0 (2×) and 1.2
  TFRC Fold Change, Average: 1.1

## LDEESGEP [FT-005, synthetic oligopeptide; -B / -E: tested with bicalutamide / enzalutamide]
[5]
  FTH1 Fold Change, Average: 3.2
PC3 cells; PC3, 10 μM oligopeptide with 10 μM bicalutamide
  decrease in survival compared to 10 μM bicalutamide monotreatment: approximately 70%
VCaP cells
  decrease in cell survival compared to […] enzalutamide with 160 SPH: approximately 40%
[1]; [10]
  TFRC Fold Change, Average: 0.6
[1]; [11]
  TFRC Fold Change (single replicates): 0.7 and 0.5 (2×)
[2]; [12]
  FTH1 Fold Change, Average: 2.2
[2]; [13]
  FTH1 Fold Change (single replicates): 2.2 (2×) and 2.3
[6]
  FTH1 Fold Change, Average: 2.3
VCaP-EnzR cells
  relative survival: 11%
[3]; [10]
  FTH1 Fold Change, Average: 2.1
[3]; [11]
  FTH1 Fold Change (single replicates): 2.2 and 2.1 (2×)
[7]
  TFRC Fold Change, Average: 0.6
[4]; [12]
  TFRC Fold Change, Average: 0.6
[4]; [13]
  TFRC Fold Change (single replicates): 0.7 and 0.6 (2×)
[8]
  TFRC Fold Change, Average: 0.5

## PREESDKP [FT-007]
[1]; [10]
  TFRC Fold Change, Average: 0.7
[1]; [14]
  TFRC Fold Change (single replicates): 0.6 and 0.8 (2×)
[6]
  FTH1 Fold Change, Average: 1.9
[3]; [10]
  FTH1 Fold Change, Average: 1.9
[3]; [14]
  FTH1 Fold Change (single replicates): 1.9 (2×) and 2.0
[7]
  TFRC Fold Change, Average: 0.8

## REESDKPMY [FT-006]
[5]
  FTH1 Fold Change, Average: 2.6
[2]; [12]
  FTH1 Fold Change, Average: 1.8
[2]; [15]
  FTH1 Fold Change (single replicates): 1.9 (2×) and 1.6
[4]; [12]
  TFRC Fold Change, Average: 0.9
[4]; [15]
  TFRC Fold Change (single replicates): 0.9 (2×) and 0.8
[8]
  TFRC Fold Change, Average: 0.6

## REESGEL [FT-008]
[5]
  FTH1 Fold Change, Average: 2.5
[1]; [10]
  TFRC Fold Change, Average: 0.9
[1]; [16]
  TFRC Fold Change (single replicates): 0.8 and 0.9 (2×)
[2]; [12]
  FTH1 Fold Change, Average: 2.0
[2]; [17]
  FTH1 Fold Change (single replicates): 1.8 and 1.9 and 2.2
[6]
  FTH1 Fold Change, Average: 2.2
[3]; [10]
  FTH1 Fold Change, Average: 1.8
[3]; [16]
  FTH1 Fold Change (single replicates): 1.8 (2×) and 1.9
[7]
  TFRC Fold Change (single replicates): 0.7
  TFRC Fold Change, Average: 0.7
[4]; [12]
  TFRC Fold Change, Average: 0.8
[4]; [17]
  TFRC Fold Change (single replicates): 0.8 (2×) and 0.9
[8]
  TFRC Fold Change, Average: 0.6
